pIC50: −log10 of the molar value.
Test system: 817829-284-R-J1-PDC complex spheroids, viability
Experiment: Anticancer human tumor 817829-284-R-J1-PDC patient-derived colon adenocarcinoma cell line growth inhibition [GQUAD]
Settings: for pIC50: curve of first compound; for viability, T/C: stronger effect = lower value
From the text: DNA G-quadruplex Stabilizer Agents in Combinations in Complex Spheroids
A high-throughput screen of multi-cell type tumor spheroids was designed to identify active combinations of DNA G-quadruplex stabilizer agents and targeted small molecules. Complex spheroids include a stromal component modeled by human endothelial cells (HUVEC) and fibroblasts modeled by human mesenchymal stem cells (MSCs). The concentration ranges selected for each drug and investigational agent were based upon clinically achievable concentrations if the clinical Cmax of the agent was known.
Compounds. The drugs and investigational agents: pidnarulex (CX-5461; NSC782164), APTO-253 (NSC789042), BRACO-19 (NSC847499), peposertib (NSC802822), ceralasertib (NSC780249), elimusertib (NSC800525), camonsertib (NSC841442), AZD-1390 (NSC803789), olaparib (NSC753686), talazoparib (NSC767125), ART-558 (NSC835418), sotorasib (NSC818433), MRTX-1133 (NSC836407), SN-38 (NSC673596), topotecan (NSC609699), etoposide (NSC141540), doxorubicin (NSC123127), gemcitabine (NSC613327), 5-fluorouracil (NSC19893), paclitaxel (NSC125973), vemurafenib (NSC761431), panobinostat (NSC761190), R-306465 (JNJ-16241199; NSC773264), adavosertib (NSC754352), TP-3654 (NSC805149), carboplatin (NSC241240), KSQ-4279 (NSC840948), and staurosporine (NSC755774) were obtained from the National Cancer Institute (NCI) Developmental Therapeutics Program Chemical Repository (34). The FDA-approved anticancer drug set is available from the NCI Developmental Therapeutics Program. […] The stock solutions were prepared in dimethyl sulfoxide (DMSO, Sigma-Aldrich, St. Louis, MO, cat. D2650) at 800-fold the tested concentration and stored at -70 degrees C prior to their use. All drugs and investigational agents were tested over a range starting from a high concentration at or near the clinical Cmax and decreasing in half-log increments. If the clinical Cmax for an agent had not been determined, the highest concentration tested was 10 microM.
2.3 Cell Culture. All cells were maintained in an incubator at 37 degrees C and 5% CO2 with 95% humidity. The PDC lines were cultured according to standard operating procedures established by the NCI PDMR. All PDCs were thawed and cultured in Matrigel-coated flasks prepared with a working solution of 1X Ham's F-12 nutrient mix, without supplementation (Invitrogen, cat. 11765054), 100 U/mL penicillin-streptomycin (Invitrogen, cat. 15140122), and 2.5% Matrigel (Corning Inc., cat. 354248) for the first three passages. The 857933-349-R-J2-PDC line was cultured in 6C/Colon 1B media, which includes advanced DMEM/F-12 (Thermo Fisher Scientific, cat. 12634028), 10 mM HEPES (Thermo Fisher Scientific, cat. 15630080), 1X GlutaMAX supplement (Thermo Fisher Scientific, cat. 35050061), 0.1 mg/mL primocin (InvivoGen, cat. ant-pm-2), 10% defined fetal bovine serum, heat inactivated (HyClone Laboratories Inc., cat. SH30070.03HI), 50% L-WRN conditioned media (ATCC, cat. CRL-3276), 1.25 mM N-Acetyl-L-cysteine (Sigma-Aldrich, cat. A9165), 10 mM nicotinamide (Sigma-Aldrich, cat. N0636), 1X B-27 supplement (Thermo Fisher Scientific, cat. 17504044), 1X N-2 supplement (Thermo Fisher Scientific, cat. 17502048), 10 microM Y-27632 dihydrochloride (Tocris Bioscience, cat. 1254), and 50 ng/mL human EGF recombinant protein (Thermo Fisher Scientific, cat. PHG0311). The 485176-168-R4-J1-PDC line was cultured in Panc media, which includes all 6C/Colon 1B media components plus 100 ng/mL human FGF-10 (Thermo Fisher Scientific, cat. 100-26), 500 nM SB-431542 (Selleckchem, cat. S1067), and gastrin (Tocris, cat. 3006).
[…]

[1] = second compound 0.0316 µM, first compound 0.0316 µM
[2] = second compound 0.0316 µM, first compound 0.1 µM
[3] = second compound 0.0316 µM, first compound 0.316 µM
[4] = second compound 0.0316 µM, first compound 1 µM
[5] = second compound 0.0316 µM, first compound 3.16 µM
[6] = second compound 0.0316 µM, first compound 10 µM
[7] = second compound 0.1 µM, first compound 0.0316 µM
[8] = second compound 0.1 µM, first compound 0.1 µM
[9] = second compound 0.1 µM, first compound 0.316 µM
[10] = second compound 0.1 µM, first compound 1 µM
[11] = second compound 0.1 µM, first compound 3.16 µM
[12] = second compound 0.1 µM, first compound 10 µM
[13] = second compound 0.316 µM, first compound 0.0316 µM
[14] = second compound 0.316 µM, first compound 0.1 µM
[15] = second compound 0.316 µM, first compound 0.316 µM
[16] = second compound 0.316 µM, first compound 1 µM
[17] = second compound 0.316 µM, first compound 3.16 µM
[18] = second compound 0.316 µM, first compound 10 µM
[19] = second compound 1 µM, first compound 0.0316 µM
[20] = second compound 1 µM, first compound 0.1 µM
[21] = second compound 1 µM, first compound 0.316 µM
[22] = second compound 1 µM, first compound 1 µM
[23] = second compound 1 µM, first compound 3.16 µM
[24] = second compound 1 µM, first compound 10 µM
[25] = second compound 3.16 µM, first compound 0.0316 µM
[26] = second compound 3.16 µM, first compound 0.1 µM
[27] = second compound 3.16 µM, first compound 0.316 µM
[28] = second compound 3.16 µM, first compound 1 µM
[29] = second compound 3.16 µM, first compound 3.16 µM
[30] = second compound 3.16 µM, first compound 10 µM
[31] = second compound 10 µM, first compound 0.0316 µM
[32] = second compound 10 µM, first compound 0.1 µM
[33] = second compound 10 µM, first compound 0.316 µM
[34] = second compound 10 µM, first compound 1 µM
[35] = second compound 10 µM, first compound 3.16 µM
[36] = second compound 10 µM, first compound 10 µM
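Also: spheroids exposed to agents for 7 days before readout.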
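For viability, T/C in this document: percent viability relative to DMSO vehicle control taken as 100%.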

Compound: CC(C)n1c(=O)n(C)c2cnc3cc(F)c(-c4ccc(OCCCN5CCCCC5)nc4)cc3c21 + Cc1cnc(CNC(=O)c2c(=O)c3ccc(N4CCCN(C)CC4)nc3n3c2sc2ccccc23)cn1
- pIC50 (second compound 0.0316 µM): > 7.50
- pIC50 (second compound 0.1 µM): > 7.50
- pIC50 (second compound 0.316 µM): > 7.50
- pIC50 (second compound 1 µM): > 7.50
- pIC50 (second compound 3.16 µM): > 7.50
- pIC50 (second compound 10 µM): > 7.50
- viability, T/C [1]: 37.7%
- viability, T/C [2]: 32.1%
- viability, T/C [3]: 36.5%
- viability, T/C [4]: 25.1%
- viability, T/C [5]: 26.6%
- viability, T/C [6]: 12.1%
- viability, T/C [7]: 30.4%
- viability, T/C [8]: 27.3%
- viability, T/C [9]: 31.3%
- viability, T/C [10]: 23.4%
- viability, T/C [11]: 22.9%
- viability, T/C [12]: 14.6%
- viability, T/C [13]: 23.7%
- viability, T/C [14]: 28.1%
- viability, T/C [15]: 23.1%
- viability, T/C [16]: 21.5%
- viability, T/C [17]: 24.4%
- viability, T/C [18]: 9.33%
- viability, T/C [19]: 19.7%
- viability, T/C [20]: 21.1%
- viability, T/C [21]: 21.9%
- viability, T/C [22]: 23.1%
- viability, T/C [23]: 24.2%
- viability, T/C [24]: 8.09%
- viability, T/C [25]: 16.6%
- viability, T/C [26]: 18.5%
- viability, T/C [27]: 19%
- viability, T/C [28]: 21%
- viability, T/C [29]: 18.8%
- viability, T/C [30]: 7.12%
- viability, T/C [31]: 0.15%
- viability, T/C [32]: 0.17%
- viability, T/C [33]: 0.18%
- viability, T/C [34]: 0.17%
- viability, T/C [35]: 0.18%
- viability, T/C [36]: 0.18%

Compound: CC1COCCN1c1cc(-c2ccnn2C)c2ccnc(-c3ccn[nH]3)c2n1 (centres undefined) + Cc1cnc(CNC(=O)c2c(=O)c3ccc(N4CCCN(C)CC4)nc3n3c2sc2ccccc23)cn1
- pIC50 (second compound 0.0316 µM): > 7.50
- pIC50 (second compound 0.1 µM): > 7.50
- pIC50 (second compound 0.316 µM): > 7.50
- pIC50 (second compound 1 µM): > 7.50
- pIC50 (second compound 3.16 µM): > 7.50
- pIC50 (second compound 10 µM): > 7.50
- viability, T/C [1]: 14.8%
- viability, T/C [2]: 9.78%
- viability, T/C [3]: 9.09%
- viability, T/C [4]: 7.06%
- viability, T/C [5]: 6.16%
- viability, T/C [6]: 4.96%
- viability, T/C [7]: 13.3%
- viability, T/C [8]: 11.1%
- viability, T/C [9]: 8.18%
- viability, T/C [10]: 6.54%
- viability, T/C [11]: 6.01%
- viability, T/C [12]: 3.97%
- viability, T/C [13]: 15%
- viability, T/C [14]: 11.9%
- viability, T/C [15]: 8.36%
- viability, T/C [16]: 6.17%
- viability, T/C [17]: 5.71%
- viability, T/C [18]: 4.08%
- viability, T/C [19]: 13.8%
- viability, T/C [20]: 14.1%
- viability, T/C [21]: 9.19%
- viability, T/C [22]: 6.22%
- viability, T/C [23]: 5.53%
- viability, T/C [24]: 3.34%
- viability, T/C [25]: 11.8%
- viability, T/C [26]: 12.1%
- viability, T/C [27]: 8.66%
- viability, T/C [28]: 6.72%
- viability, T/C [29]: 3.24%
- viability, T/C [30]: 2.62%
- viability, T/C [31]: 0.06%
- viability, T/C [32]: 0.09%
- viability, T/C [33]: 0.11%
- viability, T/C [34]: 0.08%
- viability, T/C [35]: 0.12%
- viability, T/C [36]: 0.12%

Source: PubChem BioAssay AID2060503 (Molecular Pharmacology Branch, DTP, NCI, 2025)
